From ChEMBL document CHEMBL2440061, “Synthesis and pharmacological evaluation of carboxycoumarins as a new antitumor treatment targeting lactate transport in cancer cells” (Bioorg Med Chem, 2013)
pEC50, pIC50: −log10 of the molar value. Converted amounts (≈) assume the structure as drawn. The source made the active and inactive calls. The rule behind the calls is not given here.

Tests used:
[1] = molecular target: T1, Monocarboxylate transporter 4 (Homo sapiens, UniProt O15427); experiment: Inhibition of MCT4-mediated [14C]-lactate uptake in human SiHa cells in lactate-containing medium assessed as remaining lactate concentration in culture medium after 24 hrs by liquid scintillation counting; format: cell-based
T1 sequence (O15427 whole entry): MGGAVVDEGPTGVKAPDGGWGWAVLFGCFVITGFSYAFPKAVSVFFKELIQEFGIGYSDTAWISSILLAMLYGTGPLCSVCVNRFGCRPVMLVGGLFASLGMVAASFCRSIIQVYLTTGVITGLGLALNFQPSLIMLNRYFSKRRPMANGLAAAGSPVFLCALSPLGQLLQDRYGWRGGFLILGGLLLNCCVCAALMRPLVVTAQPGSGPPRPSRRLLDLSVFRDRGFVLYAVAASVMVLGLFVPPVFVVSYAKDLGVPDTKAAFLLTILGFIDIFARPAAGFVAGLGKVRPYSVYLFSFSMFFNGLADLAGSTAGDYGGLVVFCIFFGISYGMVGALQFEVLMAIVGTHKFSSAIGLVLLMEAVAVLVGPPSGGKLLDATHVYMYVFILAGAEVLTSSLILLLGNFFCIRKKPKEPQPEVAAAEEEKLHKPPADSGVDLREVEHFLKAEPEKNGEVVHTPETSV

SiHa [2] = experiment: Cytotoxicity against human SiHa cells in lactate-containing medium after 72 hrs by MTT assay; format: functional, cell-based
SiHa [3] = experiment: Cytotoxicity against human SiHa cells in glucose-containing medium after 72 hrs by MTT assay; format: functional, cell-based
Mus musculus [4] = experiment: Toxicity in C57Bl6/J mouse assessed as mortality at 1.5 mg/kg, ip; format: organism-based; set-up: dose 1.5 mg/kg, route intraperitoneal; conditions: in vivo
Mus musculus [5] = experiment: Toxicity in C57Bl6/J mouse assessed as induction of hemorrhage at 1.5 mg/kg, ip; format: organism-based; set-up: dose 1.5 mg/kg, route intraperitoneal; conditions: in vivo
[6] = molecular target: T2, Monocarboxylate transporter 4 (Homo sapiens) (UniProt O15427); experiment: Ratio of alpha-cyano-4-hydroxycinnamate IC50 to compound IC50 for MCT4-mediated [14C]-lactate uptake in human SiHa cells in lactate-containing medium assessed as remaining lactate concentration in culture medium after 24 hrs by liquid scintillation counting; format: cell-based
T2 sequence (whole entry): T1 sequence (O15427 whole entry)

Mus musculus [7] = experiment: Toxicity in C57Bl6/J mouse assessed as induction of anticoagulant at 3 mg/kg, ip by prothrombin time test; format: organism-based; set-up: dose 3 mg/kg, route intraperitoneal; conditions: in vivo
Mus musculus [8] = experiment: Toxicity in C57Bl6/J mouse assessed as mortality at 3 mg/kg, ip; format: organism-based; set-up: dose 3 mg/kg, route intraperitoneal; conditions: in vivo
[9] = Half life in human liver microsomes; format: ADME, Microsome
[10] = Half life in mouse at 3 mg/kg, ip; format: ADME, organism-based; set-up: dose 3 mg/kg, route intraperitoneal; conditions: in vivo
[11] = Tmax in mouse at 3 mg/kg, ip; format: ADME, organism-based; set-up: dose 3 mg/kg, route intraperitoneal; conditions: in vivo
[12] = molecular target: T1, Monocarboxylate transporter 4; conditions: siha
Description: Inhibition of MCT4-mediated [14C]-lactate uptake in human SiHa cells in lactate-containing medium assessed as remaining lactate concentration in culture medium after 12 mins by liquid scintillation counting

SiHa [13] = experiment: Induction of apoptosis in human SiHa cells in lactate-containing medium assessed as caspase-3 cleavage at 10 uM after 48 hrs by Western blot analysis; format: functional, cell-based
SiHa [14] = experiment: Cytotoxicity against human SiHa cells in glucose-containing medium at 10 uM under normoxia condition after 72 hrs by MTT assay; format: functional, cell-based
SiHa [15] = experiment: Cytotoxicity against human SiHa cells in glucose-containing medium at 10 uM under hypoxia condition after 72 hrs by MTT assay; format: functional, cell-based
[16] = Chemical stability of the compound in simulated gastric fluid assessed as compound remaining after 1 hr; format: physicochemical; conditions: read-out: Stability
SiHa [17] = experiment: Cytotoxicity against human SiHa cells in glucose-containing medium after 72 hrs by MTT assay absence of pyruvate; format: functional, cell-based
[18] = Half life in human hepatocytes; format: ADME, cell-based, Hepatocyte
[19] = Half life in mouse liver microsomes; format: ADME, Microsome
SiHa [20] = experiment: Cytotoxicity against human SiHa cells in glucose-containing medium after 72 hrs by MTT assay presence of pyruvate; format: functional, cell-based
[21] = Metabolic stability in mouse plasma assessed as compound remaining after 1 hr; format: ADME, cell-free; conditions: read-out: Stability
[22] = AUC (infinity) in mouse at 3 mg/kg, ip; format: ADME, organism-based; set-up: time infinity, dose 3 mg/kg, route intraperitoneal; conditions: plasma
[23] = Cmax in mouse at 3 mg/kg, ip; format: ADME, organism-based; set-up: dose 3 mg/kg, route intraperitoneal; conditions: in vivo
[24] = Chemical stability of the compound in simulated intestinal fluid assessed as compound remaining after 4 hrs; format: physicochemical; conditions: read-out: Stability
[25] = Aqueous solubility of the compound in PBS buffer at pH 7.4; format: physicochemical
[26] = Metabolic stability in human plasma assessed as compound remaining after 1 hr; format: ADME, cell-free; conditions: read-out: Stability

Structure (SMILES): O=C(O)c1cc2ccc(N3CCCC3)cc2oc1=O
- pIC50 [1]: < 4.52
- pEC50 (SiHa [2]): 4.84
- Activity (SiHa [3]): inactive

Structure (SMILES): O=C(O)c1cc2ccc(OCc3cccc(F)c3)cc2oc1=O
- Activity (SiHa [2]): inactive

Structure (SMILES): CCn1c(=O)c(C(=O)O)cc2ccc(OCc3ccccc3)cc21
- pIC50 [1]: < 4.52
- pEC50 (SiHa [2]): < 4.52
- Activity (SiHa [3]): inactive

Structure (SMILES): O=C(O)c1cc2ccc(OCc3ccccc3)cc2n(Cc2ccccc2)c1=O
- pIC50 [1]: < 4.52
- pEC50 (SiHa [2]): < 4.52
- Activity (SiHa [3]): inactive

Structure (SMILES): CC(=O)CC(c1ccccc1)c1c(O)c2ccccc2oc1=O (stereo unspecified) [WARFARIN]
- Activity (Mus musculus [4]): Toxic
- Activity (Mus musculus [5]): Toxic

Structure (SMILES): COc1ccc2c(C)c(C(=O)O)c(=O)oc2c1
- pIC50 [1]: < 4.52
- pEC50 (SiHa [2]): < 4.52
- Activity (SiHa [3]): inactive

Structure (SMILES): O=C(O)c1cc2ccc(OCc3ccccc3)cc2oc1=O
- pIC50 [1]: 5.72
- pEC50 (SiHa [2]): 5.04
- Activity (SiHa [3]): inactive

Structure (SMILES): O=C(O)c1cc2ccc(OCc3ccc(F)cc3)cc2oc1=O
- pIC50 [1]: 5.90
- pEC50 (SiHa [2]): 5.41
- Activity (SiHa [3]): inactive

Structure (SMILES): Cn1c(=O)c(C(=O)O)cc2ccc(OCc3ccccc3)cc21
- pIC50 [1]: < 4.52
- pEC50 (SiHa [2]): < 4.52
- Activity (SiHa [3]): inactive

Structure (SMILES): O=C(O)c1cc2cc3c4c(c2oc1=O)CCCN4CCC3
- pIC50 [1]: 6.14
- Ratio IC50 [6]: 50
- pEC50 (SiHa [2]): 5.92
- Activity (SiHa [3]): inactive

Structure (SMILES): O=C(O)c1cc2ccc(OCCc3ccccc3)cc2oc1=O
- pIC50 [1]: 5.62
- pEC50 (SiHa [2]): 5.25
- Activity (SiHa [3]): inactive

Structure (SMILES): CN(C)c1ccc2cc(C(=O)O)c(=O)oc2c1
- pIC50 [1]: 5.85
- pEC50 (SiHa [2]): 5.54
- Activity (SiHa [3]): inactive

Structure (SMILES): CN(Cc1ccccc1)c1ccc2cc(C(=O)O)c(=O)oc2c1
- Activity (Mus musculus [7]): Non-toxic
- Activity (Mus musculus [8]): Non-toxic
- half-life [9]: > 60 min
- half-life [10]: 270 min
- Tmax [11]: 10 min
- pIC50 [1]: 7.23
- pIC50 [12]: 8.00
- Activity (SiHa [13]): Active
- Activity (SiHa [14]): inactive
- Activity (SiHa [15]): inactive
- remaining at 1 h [16]: 105%
- Activity (SiHa [17]): inactive
- Ratio IC50 [6]: 3
- half-life [18]: > 120 min
- half-life [19]: > 60 min
- pEC50 (SiHa [2]): 6.66
- Activity (SiHa [20]): inactive
- Activity (SiHa [3]): inactive
- remaining at 1 h [21]: 103%
- AUC(0-inf) [22]: 935 ng·h/mL
- Cmax [23]: 1250 ng/mL
- remaining at 4 h [24]: 91%
- solubility [25]: 58 µM (≈ 17.9 µg/mL)
- remaining at 1 h [26]: 44%

Structure (SMILES): Cc1c(C(=O)O)c(=O)oc2cc(OCc3ccccc3)ccc12
- pIC50 [1]: < 4.52
- pEC50 (SiHa [2]): < 4.52
- Activity (SiHa [3]): inactive

Structure (SMILES): Cc1c(C(=O)O)c(=O)oc2cc(O)ccc12
- pIC50 [1]: < 4.52
- pEC50 (SiHa [2]): < 4.52
- Activity (SiHa [3]): inactive

Structure (SMILES): N#C/C(=C\c1ccc(O)cc1)C(=O)O [alpha-CYANO-4-HYDROXYCINNAMIC ACID]
- pIC50 [1]: 4.36
- pIC50 [12]: 4.97
- pEC50 (SiHa [2]): 4.97
- Activity (SiHa [3]): inactive

Structure (SMILES): O=C(O)c1cc2ccc(N3CCOCC3)cc2oc1=O
- pIC50 [1]: 5.10
- pEC50 (SiHa [2]): 4.76
- Activity (SiHa [3]): inactive

Structure (SMILES): CC(C)=CCC/C(C)=C/COc1ccc2cc(C(=O)O)c(=O)oc2c1
- Activity (SiHa [2]): inactive

Structure (SMILES): O=C(O)c1cc2ccc(OC3Cc4ccccc4C3)cc2oc1=O
- Activity (SiHa [2]): inactive

Structure (SMILES): O=C(O)c1cc2ccc(OCc3cc(C(F)(F)F)cc(C(F)(F)F)c3)cc2oc1=O
- Activity (SiHa [2]): inactive

Structure (SMILES): COc1ccc2cc(C(=O)O)c(=O)oc2c1
- pIC50 [1]: 5.64
- pEC50 (SiHa [2]): 5.01
- Activity (SiHa [3]): inactive

Structure (SMILES): O=C(O)c1cc2ccc(OCc3ccccc3)cc2[nH]c1=O
- pIC50 [1]: < 4.52
- pEC50 (SiHa [2]): < 4.52
- Activity (SiHa [3]): inactive

Structure (SMILES): O=C(O)c1cc2ccc(OCn3nnc4ccccc43)cc2oc1=O
- Activity (SiHa [2]): inactive
